Legend:
THP1/LXR-Luc cells [1] = assay: LXR-luciferase reporter bioassay in PMA-differentiated THP1/LXR-Luc cells; type: cell-based, human; details: for EC50: Homo sapiens, THP-1, 48 h, read-out: EC50
Description: To test the efficacy of anti-MSR1 antibody-LXR conjugates in vitro, a cell-based LXR responsive luciferase reporter assay was developed. To generate the assay cell line, a LXR regulated luciferase reporter gene [Cignal Lenti LXR Reporter (luc) kit (Qiagen, Cat # CLS-001L)] was transduced into THP1 cells, and cells were selected for two weeks in puromycin. The lentivirus expresses the firefly luciferase gene under the control of a minimal CMV promoter and tandem repeats of the LXR transcriptional response element. The resulting cell line is referred to as THP1/LXR-Luc cells.
THP1/LXR-Luc cells were seeded onto 96 well plates at 40,000 cells/well in media containing RPMI supplemented with 10% FBS and pencillin/streptomycin and subsequently differentiated with 200 nM Phorbol Myristate Acetate (PMA) for 3 days. After the 3-day differentiation period, three-fold serial dilutions of antibody drug conjugates, unconjugated antibodies, or free payloads in fresh media were added to the cells at final concentration ranging from 100 nM to 0.01 nM. Media alone served as a blank control. Forty-eight hours later, luciferase activity was determined after the addition of One-Glo™ reagent (Promega, Cat # E6130) to each well. Relative light units (RLUs) were measured on a Victor luminometer (PerkinElmer) and EC50 values were determined using a four-parameter logistic equation over a 10-point dose response curve (GraphPad Prism). The signal to noise (S/N) was determined by calculating the ratio of RLU of standard one over RLU of standard eight for each of the unconjugated anti-MSR1 antibodies or free payloads. “LP #” represents a linker-payload for which the corresponding structures are provided elsewhere herein, and “P #” represents a payload for which the corresponding structures are provided elsewhere herein.

THP1/LXR-Luc cells [2] = assay: THP1/LXR-Luc luciferase reporter bioassay; type: cell-based; details: Homo sapiens, THP-1, 48 hours
Method in brief: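 THP1 cells stably carrying an LXR-response-element firefly luciferase reporter were seeded at 30,000/well in RPMI/10% FBS and given 3-fold dilutions (100 nM to 0.01 nM) for 48 or 72 h. Luminescence was read with One-Glo. EC50 came from a 4-parameter fit of a 10-point curve, and fold activation was taken relative to maximal free-payload activation.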

Q: Which EC50 (THP1/LXR-Luc cells [1]; 48-hour time point, stimulation of THP1/Luc cells) does the source give for `C[C@]1(C(=O)NC(=O)[C@@]2(C)CCC[C@]3(C)c4cc(O)ccc4CC[C@@H]23)CCC[C@]2(C)c3cc(N)ccc3CC[C@@H]12` [Compound 9d, (1S,4aS,10aR)—N-[(1S,4aS,10aR)-6-Amino-1,4a-dimethyl-1,2,3,4,4a,9,10,10a-octahydrophenanthrene-1-carbonyl]-6-hydroxy-1,4a-dimethyl-1,2,3,4,4a,9,10,10a-octahydrophenanthrene-1-carboxamide] here?
A: The EC50 was 15.9 nM.

Q: What about the EC50 (THP1/LXR-Luc cells [1]; PMA-differentiated THP1/LXR-Luc cells, 48 hours, luciferase activity (One-Glo), 10-point dose response 100 nM to 0.01 nM) of the same molecule?
A: The EC50 was 1.14 nM.

Q: What about the “S/N (signal to noise, ratio of RLU of standard one over RLU of standard eight)” value (THP1/LXR-Luc cells [1]; PMA-differentiated THP1/LXR-Luc cells, 48 hours, luciferase activity) of the same molecule?
A: The value was 15.9.

Q: What about the EC50 (THP1/LXR-Luc cells [2]; read-out: Activation of THP1/LXR-Luc cells: EC50) of the same molecule?
A: The EC50 was no more than 1 nM.

Q: What about the Emax (THP1/LXR-Luc cells [2]; relative to maximum activation of free payload 9d, read-out: Activation of THP1/LXR-Luc cells: Fold of activation) of the same molecule?
A: Its Emax is greater than 75%.

Source: patent publication US12338199B2, “Bis-octahydrophenanthrene carboxamides and protein conjugates thereof” (REGENERON PHARMACEUTICALS, INC., priority 2017, dated 2025)
